Assay results from publication PMC6838013, “Insight Into Mosquito GnRH-Related Neuropeptide Receptor Specificity Revealed Through Analysis of Naturally Occurring and Synthetic Analogs of This Neuropeptide Family” (Frontiers in Endocrinology, 2019).
pEC50: −log10 of the molar value. Where “and” joins values, the source holds several entries; their conditions need not be identical. Equal values may be shown once. Non-standard residues stand in square brackets, D forms with d. Residues, ends and D or L forms follow the SMILES beside them. pGlu = O=C1CC[C@@H](C(=O)O)N1

Tests used:
[1] = biological target: A. aegypti AKHR-IA receptor (AKHR-IA) (Aedes aegypti, UniProt A0A2P1A8S4); assay: Calcium bioluminescence (aequorin) reporter assay of heterologously expressed AKHR-IA; format: cell-based; settings: for Fold-reduction in activity relative to Aedae-AKH: AKHR-IA in CHO-K1 aequorin cells, relative to native Aedae-AKH; for pEC50: CHO-K1 cells stably expressing aequorin, transiently transfected with AKHR-IA (pcDNA3.1+), luminescence 20 s, 3 to 4 independent biological replicates, ND = no determined EC50 due to minimal or no detectable activity up to 10 μM
Sequence of A. aegypti AKHR-IA receptor (AKHR-IA) (A0A2P1A8S4 1-410): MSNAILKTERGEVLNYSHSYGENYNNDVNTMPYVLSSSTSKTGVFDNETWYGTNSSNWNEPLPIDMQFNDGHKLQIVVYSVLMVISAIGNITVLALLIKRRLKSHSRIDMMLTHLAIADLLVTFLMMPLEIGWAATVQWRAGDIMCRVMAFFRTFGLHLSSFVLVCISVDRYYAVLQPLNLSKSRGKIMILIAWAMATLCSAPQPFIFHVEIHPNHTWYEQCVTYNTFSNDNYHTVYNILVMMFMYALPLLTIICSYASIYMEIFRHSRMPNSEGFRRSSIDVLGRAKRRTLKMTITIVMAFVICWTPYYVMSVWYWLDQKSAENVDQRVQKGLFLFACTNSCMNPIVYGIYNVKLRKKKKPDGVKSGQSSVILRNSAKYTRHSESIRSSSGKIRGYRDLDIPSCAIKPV
Procedure: For each construct, an overnight liquid culture of clonal recombinant bacteria containing the appropriate plasmid construct was grown in antibiotic-containing LB media and used to isolate midiprep DNA using the PureLink Midiprep kit (Life Technologies, Burlington, ON). Midiprep samples were then quantified and sent for sequencing as described previously ([26], [27]).
(§1) Functional activation of the AedaeACPR and AedaeAKHR-IA receptors was carried out following a previously described mammalian cell culture system involving a Chinese hamster ovary (CHO)-K1 cell line stably expressing aequorin ([43]). Cells were grown in DMEM:F12 media containing 10% heat-inactivated fetal bovine serum (Wisent, St. Bruno, QC), 200 μg/mL Geneticin, 1x antimycotic-antibiotic to approximately 90% confluency, and were transiently transfected using either Lipofectamine LTX with Plus Reagent or Lipofectamine 3000 transfection systems (Invitrogen, Burlington, ON) following manufacturer recommended DNA to transfection reagent ratios. Cells were detached from the culture flasks at 48 h post-transfection using 5 mM EDTA in Dulbecco's PBS. Cells were then prepared for the receptor functional assay following a procedure described previously ([27]). Stocks of peptide analogs of ACP and AKH were used for preparation of serial dilutions all of which were prepared in assay media (0.1% BSA in DMEM:F12) and loaded in quadruplicates into 96-well white luminescence plates (Greiner Bio-One, Germany). Cells were loaded with an automatic injector into each well of the plate containing different peptide analogs at various concentrations as well as negative control (assay media alone) and positive control wells (50 μM ATP). Immediately after injection of the cells, luminescence was measured for 20 s using a Synergy 2 Multi-Mode Microplate Reader (BioTek, Winooski, VT, USA). Calculations, including determination of EC50 values, were conducted in GraphPad Prism 7.02 (GraphPad Software, San Diego, USA) from dose-response curves from 3 to 4 independent biological replicates.

[2] = system: A. aegypti ACP receptor (AedaeACPR); assay: Calcium bioluminescence (aequorin) reporter assay of heterologously expressed ACPR; format: cell-based, Aedes aegypti
Excerpt: Therefore, to improve the bioluminescent signal linked to calcium mobilization following receptor activation, which was required in order to provide greater signal to noise ratio when testing ACP analogs with substitutions leading to intermediate levels of activation of the ACPR, we created a new mammalian expression construct using the dual promoter vector, pBudCE4.1. Specifically, we utilized a cloning strategy as reported previously ([41]) whereby the ACPR was inserted into the multiple cloning site (MCS) downstream of the CMV promoter in pBudCE4.1 using the sense primer SalI-KozakACPR, 5′-[…]-3′ and anti-sense primer XbaI-ACPR, 5′-[…]-3′, which directionally inserted the ACPR within the MCS downstream of the CMV promoter. Secondly, the murine homolog (Gα15) of the human promiscuous G protein, Gα16, which indiscriminately couples a wide variety of GPCRs to calcium signaling ([42]) was inserted into the MCS downstream of the EF1-α promoter in pBudCE4.1 using the sense primer NotI-Gα15, 5′-[…]-3′ and anti-sense primer BglII-Gα15, 5′-[…]-3′, which directionally inserted the murine Gα15 within the MCS downstream of the EF1-α promoter.
as §1

| Structure (SMILES) | Fold-reduction in activity relative to Aedae-AKH [1] | pEC50 [1] | Improved efficacy on AKHR-IA relative to native mosquito AKH ([1]; relative to Aedae-AKH) | Improved AKHR-IA activation over that achieved by Grybi-AKH ([1]; relative to Grybi-AKH) | Activity on ACPR at the highest tested dose, in words ([2]; 10 μM, Figure 2, ANOVA and Tukey post-test) | Fold-reduction in activity relative to AedaeACP ([2]; ACPR in CHO-K1 aequorin cells, relative to native Aedae-ACP) | Fold-reduction in activity relative to Aedae-AKH ([1]; listed as V^2-Peram-CAH-II) |
| --- | --- | --- | --- | --- | --- | --- | --- |
| CC(C)C[C@H](NC(=O)[C@@H]1CCC(=O)N1)C(=O)N[C@H](C(=O)N[C@@H](Cc1ccccc1)C(=O)N[C@H](C(=O)N[C@@H](CO)C(=O)N[C@@H](CO)C(=O)N[C@@H](Cc1c[nH]c2ccccc12)C(N)=O)[C@@H](C)O)[C@@H](C)O [Hipes-AKH-I] ([pGlu]LTFTSSW-NH2) | 7.6 fold | 7.78 |  |  |  |  |  |
| CC(C)C[C@H](NC(=O)[C@@H]1CCC(=O)N1)C(=O)N[C@H](C(=O)N[C@@H](Cc1ccccc1)C(=O)N[C@H](C(=O)N1CCC[C@H]1C(=O)NCC(=O)N[C@@H](Cc1c[nH]c2ccccc12)C(N)=O)[C@@H](C)O)[C@@H](C)O [Tabat-AKH] ([pGlu]LTFTPGW-NH2) | 0.7 fold | 8.82 | ~ 30% and 30% |  |  |  |  |
| CC(C)[C@H](NC(=O)[C@@H]1CCC(=O)N1)C(=O)N[C@@H](CC(N)=O)C(=O)N[C@@H](Cc1ccccc1)C(=O)N[C@H](C(=O)N1CCC[C@H]1C(=O)N[C@@H](CO)C(=O)N[C@@H](Cc1c[nH]c2ccccc12)C(N)=O)[C@@H](C)O [Libau-AKH] ([pGlu]VNFTPSW-NH2) | 548 fold and 547.9 fold | 5.93 |  | ~2 fold |  |  |  |
| CC(C)C[C@H](NC(=O)[C@@H]1CCC(=O)N1)C(=O)N[C@H](C(=O)N[C@@H](Cc1ccccc1)C(=O)N[C@H](C(=O)N1CCC[C@H]1C(=O)NCC(=O)N[C@@H](Cc1c[nH]c2ccccc12)C(=O)NCC(=O)N[C@@H](CCC(N)=O)C(N)=O)[C@@H](C)O)[C@@H](C)O [Bommo-AKH] ([pGlu]LTFTPGWGQ-NH2) | 11 fold and 10.9 fold | 7.63 |  |  | inactive | >1,000 fold |  |
| CC(C)[C@H](NC(=O)[C@@H]1CCC(=O)N1)C(=O)N[C@@H](CC(N)=O)C(=O)N[C@@H](Cc1ccccc1)C(=O)N[C@@H](CO)C(=O)N[C@H](C(=O)NCC(=O)N[C@@H](Cc1c[nH]c2ccccc12)C(N)=O)[C@@H](C)O [Grybi-AKH] ([pGlu]VNFSTGW-NH2) |  | 5.65 |  |  |  |  |  |
| CC(C)[C@H](NC(=O)[C@@H]1CCC(=O)N1)C(=O)N[C@H](C(=O)N[C@@H](Cc1ccccc1)C(=O)N[C@H](C(=O)N1CCC[C@H]1C(=O)N[C@@H](CC(N)=O)C(=O)N[C@@H](Cc1c[nH]c2ccccc12)C(N)=O)[C@@H](C)O)[C@@H](C)O [V^2-PeramCAH-II] ([pGlu]VTFTPNW-NH2) | 68.8 fold | 6.83 |  |  |  |  | 69 fold |
